In publication PMC6151740, “Pharmacokinetics, Tissue Distribution, and Elimination of Three Active Alkaloids in Rats after Oral Administration of the Effective Fraction of Alkaloids from Ramulus Mori, an Innovative Hypoglycemic Agent” (Molecules : A Journal of Synthetic Chemistry and Natural …, 2017):
Like-named read-outs stand apart in the source and are kept apart here.

Key:
[1] = Plasma pharmacokinetic study in rats after oral and intravenous administration of SZ–A or purified DNJ; assay type: in vivo, rat; conditions: for AUC(0-inf) / AUC(0-t) / Tmax / half-life / clearance / MRT last / MRT inf / Vd / Cmax / CLz: rat plasma, n = 5; for clearance: read-out: CLz (converted); for MRT last: read-out: MRT0–t; for MRT inf: read-out: MRT0–∞; for bioavailability: plasma, read-out: F (oral absolute bioavailability)
Method: The oral dosing solutions used for all animal studies were prepared by dissolving in water. Thirty rats weighed 250–270 g after acclimation were randomly divided into six groups of five animals each. For oral administration, rats were treated with SZ–A (40, 200, 1000 mg/kg) or purified DNJ (15 mg/kg) dissolve in water. Blood samples (about 0.25 mL) were collected via the postorbital venous plexus veins under ether anesthesia into heparinized polythene tubes before dosing and at 0.08, 0.17, 0.33, 0.50, 1, 2, 3, 4, 6, 8, 12, 24 and 36 h after drug administration. For intravenous dosing, rats were given SZ–A (4 mg/kg) or DNJ (1.5 mg/kg) dissolved in normal saline solution through the tail vein. Then blood samples were collected at 0.03, 0.08, 0.17, 0.33, 0.67, 1, 2, 4, 6, 8, 12, 24, and 36 h under similar conditions. Considering the physical limit of blood in rats, during the process of the pharmacokinetic experiment, each rat was received 0.25 mL of sterile isotonic saline at each time point after blood sampling for compensation of body fluid loss, and the blood loss was also corrected at a definite degree. Plasma was separated by centrifuging the blood samples at 1660× g for 5 min and stored at −20 °C until LC-MS/MS analysis. Data fitting and pharmacokinetic parameter estimates were carried out using non–compartmental analysis via WinNonlin Software (version 6.1, Pharsight Corporation, Mountain View, CA, USA). F was calculated according to the formula: F (%) = (AUC oral/AUC i.v.) × (dose i.v./dose oral) × 100.
The plasma, feces, urine, and bile samples (100 μL) were added to 1 μL of Tris aqueous solution (2 M), 10 μL of IS working solution (2 μg/mL), and 190 μL methanol–acetonitrile (25:75, v/v). The incubation supernatant samples (300 μL) were mixed with 1 μL Tris aqueous solution (2 M) and 10 μL of IS working solution (2 μg/mL). All mixtures were vortexed for 30 s followed by centrifugation at 18,880× g for 5 min, twice.
Briefly, the LC-MS/MS instrument consisted of a 1260 HPLC system (Agilent, Santa Clara, CA, USA) and API4000 triple quadrupole mass spectrometer (Applied Biosystems Sciex, Toronto, ON, Canada) with an electrospray ionization (ESI) source and Analyst software (version 1.5.2, Applied Biosystems Sciex, Toronto, ON, Canada) for data acquisition and processing. DNJ, FGM, DAB, and IS were separated in a Xbridge amide™ column (3.5 μm, 4.6 mm × 150 mm; Waters, Milford, MA, USA) with a gradient mobile phase of acetonitrile-water (0.1% ammonium hydroxide) at a flow rate of 0.7 mL/min. An ESI source was used in the positive ion mode. The optimized mass spectrometric condition was as follows: ion spray voltage, 5500 V; collision gas, 6 psi; curtain gas, 20 psi; ion source gas 1 (GS1), 45 psi; ion source gas 2 (GS2), 45 psi; temperature, 450 °C. The multiple reaction monitoring (MRM) transitions of DNJ, FGM, DAB, and IS were m/z 164.0→110.1 (declustering potential (DP) 50 V, collision energy (CE) 22 V, collision cell exit potential (CXP) 10 V), 148.0→112.1 (DP 66 V, CE 21 V, CXP 10 V), 134.0→98.0 (DP 60 V, CE 20 V, CXP 10 V) and 208.0→146.1 (DP 50 V, CE 27 V, CXP 10 V), respectively.

[2] = In situ single-pass intestinal perfusion (rat jejunum, mesenteric vein blood); assay type: in vivo; conditions: by 60 min, n = 5
Method: The surgical procedures were similar to those described elsewhere. The Hank’s balanced salt solution (HBSS, pH = 7.4) with SZ–A (21.73 μg/mL) or DNJ (50 μM) at 37 °C was infused into the jejunum at 0.3 mL/min individually. Phenol Red (50 μM) was added to serve as a nonabsorbable marker for measuring water flux. The blood from mesenteric vein and perfusate were collected at five-minute intervals. The plasma was separated by centrifugation and perfusate were immediately frozen at −20 °C for LC-MS/MS analysis. Atenolol and propranolol, the low- and high-permeability markers, were used to check the integrity of the intestinal membrane.

[3] = In vitro incubation of SZ–A with rat intestinal homogenate; assay type: in vitro ADME; conditions: SZ–A 10.87 μg/mL, with/without NADPH generation, 37 °C, 120 min
Method: Pooled rat intestinal homogenate from six males was prepared using a tissue homogenizer with ice cold normal saline solution at a proportion of 1:3 (w/v). SZ–A was incubated with rat intestinal homogenate (5 mg protein/mL) with/without a NADPH-generating system (0.011 M β-NADP, 0.1 M glucose 6-phosphate, 10 U/mL glucose-6-phosphate dehydrogenase) in a 37 °C water bath for 120 min. Meanwhile, caecal content was collected and mixed with anaerobic medium (1:30, w/v) to prepare the cultures under nitrogen atmosphere at 37 °C for 120 min. SZ–A and rat caecal microbiota cultures were incubated at a total volume of 200 μL with the boiled samples as the negative control, concomitantly. The incubation was stopped at 2 h by adding two volumes of methanol–acetonitrile (1:3, v/v). Triplicate supernatants were taken by centrifugation at 18,880× g for 5 min and stored at −20 °C until LC-MS/MS analysis. The results were expressed as the percentage of the concentration at 0 min.

[4] = Sprague-Dawley, iv, SZ–A 4 mg/kg i.v.
[5] = Sprague-Dawley, iv, purified DNJ 1.5 mg/kg i.v.
[6] = Sprague-Dawley, po, SZ–A 40 mg/kg p.o.
[7] = Sprague-Dawley, po, SZ–A 200 mg/kg p.o.
[8] = Sprague-Dawley, po, SZ–A 1000 mg/kg p.o.
[9] = Sprague-Dawley, po, purified DNJ 15 mg/kg p.o.

AUC(0-inf) [1, 4]: 1400 ± 175 ng·h/mL
AUC(0-t) [1, 4]: 1400 ± 174 ng·h/mL
Tmax [1, 4]: 1.98 min
half-life [1, 4]: 17.4 ± 4.8 min
clearance [1, 4]: 18.1 mL/min/kg
MRT last [1, 4]: 48 ± 30 min
MRT inf [1, 4]: 49.2 ± 30.6 min
Vd ([1]; Sprague-Dawley, iv, SZ–A 4 mg/kg i.v., read-out: Vd): 0.453 ± 0.13 L/kg
AUC(0-inf) [1, 5]: 1140 ± 108 ng·h/mL
AUC(0-t) [1, 5]: 1130 ± 108 ng·h/mL
Cmax [1, 5]: 4520 ± 576 ng/mL
Tmax [1, 5]: 1.8 min
half-life [1, 5]: 15 ± 3 min
clearance [1, 5]: 22.2 mL/min/kg
MRT last [1, 5]: 28.8 ± 4.8 min
MRT inf [1, 5]: 30 ± 4.8 min
Vd ([1]; Sprague-Dawley, iv, purified DNJ 1.5 mg/kg i.v., read-out: Vd): 0.486 ± 0.0854 L/kg
bioavailability ([1]; Sprague-Dawley, po, rat, SZ–A 40 mg/kg p.o. vs SZ–A 4 mg/kg i.v.): 72.4%
bioavailability ([1]; Sprague-Dawley, po, rat, SZ–A 200 mg/kg p.o. vs SZ–A 4 mg/kg i.v.): 38.6%
bioavailability ([1]; Sprague-Dawley, po, rat, SZ–A 1000 mg/kg p.o. vs SZ–A 4 mg/kg i.v.): 33.3%
bioavailability ([1]; Sprague-Dawley, po, rat, purified DNJ 15 mg/kg p.o. vs DNJ 1.5 mg/kg i.v.): 59.4%
AUC(0-inf) [1, 6]: 10200 ng·h/mL
AUC(0-t) [1, 6]: 10100 ng·h/mL
Cmax [1, 6]: 6370 ± 1120 ng/mL
Tmax [1, 6]: 40.2 ± 17.4 min
half-life [1, 6]: 78 ± 15 min
MRT last [1, 6]: 103 ± 40.2 min
MRT inf [1, 6]: 107 ± 41.4 min
AUC(0-inf) [1, 7]: 27000 ng·h/mL
AUC(0-t) [1, 7]: 27000 ng·h/mL
Cmax [1, 7]: 10500 ng/mL
Tmax [1, 7]: 40.2 ± 12 min
half-life [1, 7]: 127 ± 28.2 min
MRT last [1, 7]: 158 ± 28.8 min
MRT inf [1, 7]: 163 ± 29.4 min
AUC(0-inf) [1, 8]: 117000 ng·h/mL
AUC(0-t) [1, 8]: 116000 ng·h/mL
Cmax [1, 8]: 25100 ng/mL
Tmax [1, 8]: 25.8 ± 5.4 min
half-life [1, 8]: 211 ± 51 min
MRT last [1, 8]: 307 ± 88.8 min
MRT inf [1, 8]: 315 ± 91.8 min
AUC(0-t) [1, 9]: 6730 ± 1150 ng·h/mL
Cmax [1, 9]: 4860 ± 1120 ng/mL
Tmax [1, 9]: 40.2 ± 17.4 min
half-life [1, 9]: 52.8 ± 8.4 min
MRT last [1, 9]: 106 ± 15 min
MRT inf [1, 9]: 111 ± 12.6 min
CLz ([1]; SZ–A 40 mg/kg p.o.): 25.013 ± 3.258 mL/min/kg
Vd ([1]; SZ–A 40 mg/kg p.o.): 2.8301 ± 0.7411 L/kg
CLz ([1]; SZ–A 200 mg/kg p.o.): 47.062 ± 6.693 mL/min/kg
Vd ([1]; SZ–A 200 mg/kg p.o.): 8.6178 ± 2.3175 L/kg
CLz ([1]; SZ–A 1000 mg/kg p.o.): 54.045 ± 4.968 mL/min/kg
Vd ([1]; SZ–A 1000 mg/kg p.o.): 16,468.3 ± 4217.0 mL/kg
CLz ([1]; purified DNJ 15 mg/kg p.o.): 37.693 ± 6.373 mL/min/kg
time to reach maximum plasma concentration (Cmax) ([1]; rat, after oral administration of SZ–A (40, 200, 1000 mg/kg), upper bound over doses): ≤ 0.67 h
average AUC of DNJ in the SZ–A group relative to the DNJ group ([1]; rat, intravenous injection, SZ–A 4 mg/kg vs purified DNJ 1.5 mg/kg): 1.2 fold
average AUC of DNJ in the SZ–A group relative to the DNJ group ([1]; rat, oral administration, SZ–A 40 mg/kg vs purified DNJ 15 mg/kg): 1.5 fold
cumulative amount per unit of area absorbed into the mesenteric venous blood ([2]; perfusion of SZ–A 21.73 μg/mL (containing 50 μM DNJ)): 2136.1 pmol/cm^2
cumulative amount per unit of area absorbed into the mesenteric venous blood ([2]; perfusion of purified DNJ 50 μM): 1787.1 pmol/cm^2
amount of alkaloid after incubation in rat intestinal homogenate [3]: not changed significantly
Structure (SMILES): OC[C@H]1NC[C@H](O)[C@@H](O)[C@@H]1O [DNJ, 1-deoxynojirimycin]
